Each structure is given as a SMILES string. pEC50: −log10 of the molar value. Read-outs that look alike come from different tables or passages of the source.

The target of test [1] is T1, ligand-binding domain (LBD) of LXRα (Homo sapiens, UniProt Q13133).
T1 construct: expressed in transfected cells; host or cells: HEK293
T1 sequence (Q13133 155-447): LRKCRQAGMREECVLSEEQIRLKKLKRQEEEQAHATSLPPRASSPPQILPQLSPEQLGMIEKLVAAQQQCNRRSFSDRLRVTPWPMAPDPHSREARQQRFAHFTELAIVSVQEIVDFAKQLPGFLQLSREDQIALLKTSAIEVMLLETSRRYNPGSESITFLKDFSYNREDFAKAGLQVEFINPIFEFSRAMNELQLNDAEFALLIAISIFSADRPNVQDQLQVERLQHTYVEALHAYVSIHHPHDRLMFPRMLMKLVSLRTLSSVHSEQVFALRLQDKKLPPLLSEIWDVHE
As to the kind of experiment: LXR Gal4 reporter transient transfection assay (LBD-M2H Gal4α). Particulars: HEK293 cells. The test is classed as cell-based. Put shortly:
(§1)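 Two-hybrid assay pairing LXR constructs (FL aa 1-447/1-461 or LBD aa 155-447/156-461) with coactivator SRC1 or corepressor NCoR in HEK293. Sulfonyl acetic acid stocks contained trifluoroacetic acid. Compounds: 16 h; read-out dual luciferase.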

The target in test [2] is T2, ligand-binding domain (LBD) of LXRβ (Homo sapiens, UniProt P55055, DUP175-175).
T2 construct: LXRβ (amino acids 156-461); expressed in transfected cells; host or cells: HEK293
T2 sequence (P55055 with tags, fused parts or gaps DUP175-175 limits assumed): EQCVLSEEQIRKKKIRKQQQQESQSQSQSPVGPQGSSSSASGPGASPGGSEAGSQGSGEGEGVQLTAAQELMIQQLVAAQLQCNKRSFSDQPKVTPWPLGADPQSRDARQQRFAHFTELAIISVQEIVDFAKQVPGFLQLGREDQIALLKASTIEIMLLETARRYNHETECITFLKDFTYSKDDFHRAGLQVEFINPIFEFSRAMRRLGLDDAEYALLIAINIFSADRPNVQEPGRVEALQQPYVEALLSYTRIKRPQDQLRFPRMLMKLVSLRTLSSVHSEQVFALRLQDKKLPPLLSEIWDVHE
Kind of test: LXR Gal4 reporter transient transfection assay (LBD-M2H Gal4β). Type of test: cell-based. As to conditions: HEK293 cells. Put shortly: as §1

Where [3] appears, read: LXRα LBD, read-out: LBD-M2H Gal4α (EC50 range).
[4] abbreviates: LXRβ LBD, read-out: LBD-M2H Gal4β (EC50 range).

As to `Cc1ccc(S(=O)(=O)n2c(-c3cccc(N4CC(C(=O)O)C4)c3)c(-c3ccsc3C#N)c3cc(F)c(Cl)cc32)cc1` [3/43], the pEC50 in test [1] (setting [3]) and in test [2] (setting [4]) was 6.00 to 7.00 in each case.

Consider `Cc1ccc(S(=O)(=O)n2c(-c3cccc(N4CC(C(=O)O)C4)c3)c(-c3ccsc3C#N)c3cc(Cl)ccc32)cc1` [3/44], for which the pEC50 in test [1] (setting [3]) and in test [2] (setting [4]) was greater than 7.00 each time.

For the molecule `Cc1ccc(S(=O)(=O)n2c(-c3cccc(N4CC(C(=O)O)C4)c3)c(-c3ccsc3C#N)c3cc(F)c(F)cc32)cc1` [3/42], the pEC50 in test [1] (setting [3]) is 6.00 to 7.00; in test [2] (setting [4]), greater than 7.00.

Take `Cc1ccc(S(=O)(=O)n2c(-c3cccc(N4CC(C(=O)O)C4)c3)c(-c3ccsc3C#N)c3cc(F)ccc32)cc1` [3/32]: the “LBD-M2H Gal4α efficacy (value in brackets)” value in test [1] was 103%. Further, the results for the pEC50 in test [1] (read-out: LBD-M2H Gal4α potency) and in test [2] (read-out: LBD-M2H Gal4β potency) were 6.97 and 7.89, respectively. The “LBD-M2H Gal4β efficacy (value in brackets)” value in test [2] came to 81%.

As for `Cc1ccc(S(=O)(=O)n2c(-c3cccc(N4CC(C(=O)O)C4)c3)c(-c3ccsc3C#N)c3cc(C)ccc32)cc1` [3/46], the pEC50 in test [1] (setting [3]) and in test [2] (setting [4]) was greater than 7.00 each time.

The record behind these values is patent US11618747B2, “LXR modulators with bicyclic core moiety” (OrsoBio, Inc., priority 2018, dated 2023).
